From paper PMC2989597 (Current topics in medicinal chemistry, 2009)

Key:
AmpC β-lactamase = conditions: cited from earlier work
Aqueous solubility = type: physicochemical
Microsomal stability = type: in vitro ADME; conditions: rat
Caco-2 = Caco-2 permeability; type: in vitro ADME
Cyp = Cyp inhibition; type: in vitro ADME
Plasma protein binding = type: in vitro ADME; conditions: low free fraction
glucocerebrosidase (GC) = conditions: native GC; cited from earlier work
α-glucosidase = conditions: cited from earlier work
α-galactosidase = conditions: cited from earlier work
[1] = system: β-N-acetylflucosaminidase; conditions: cited from earlier work
N370S mutant GC = N370S mutant GC fibroblasts, 40 μM; cited from earlier work
[2] = system: Thyroid stimulating hormone receptor (TSHR); conditions: AID 926; cited from earlier work
TSHR [3] = conditions: cited from earlier work
[4] = system: thyroperoxidase mRNA expression; conditions: human thyrocytes, 10 μM and 30 μM; cited from earlier work
TSHR [5] = conditions: sera from 4 Graves' disease patients, cAMP accumulation; cited from earlier work
LHR = conditions: cited from earlier work
S. mansoni adult worms = conditions: 100 μM carboxy-PTIO (NO scavenger); cited from earlier work
S. mansoni TGR = conditions: single 10 μM exposure to 15 nM S. mansoni TGR, NADPH; cited from earlier work

SMILES: CC(C)[C@H](NC(=O)OC(C)(C)C)c1nnc(S(=O)(=O)Cc2c(F)cccc2Cl)o1 [NCGC00067197, (S)-tert-butyl 1-(5-(2-chloro-6-fluorobenzylsulfonyl)-1,3,4-oxadiazol-2-yl)-2-methylpropylcarbamate]
- IC50 (AmpC β-lactamase): 16 nM

SMILES: Cc1cc(N2CCOCC2)nc2ccc(NC(=O)C3CCCCC3)cc12 [NCGC00092410, N-(4-methyl-2-morpholinoquinolin-6-yl)cyclohexanecarboxamide]
- aqueous solubility (Aqueous solubility): acceptable
- microsomal stability (Microsomal stability): acceptable
- Caco-2 permeability (Caco-2): acceptable
- Cyp inhibition (Cyp): no relevant Cyp inhibition
- plasma protein binding (Plasma protein binding): high level
- Ki (glucocerebrosidase (GC)): 21 nM
- inhibitory capacity for α-glucosidase (α-glucosidase): no inhibitory capacity
- inhibitory capacity for α-galactosidase (α-galactosidase): no inhibitory capacity
- inhibitory capacity for β-N-acetylflucosaminidase [1]: no inhibitory capacity
- co-localization of mutant GC to the lysosome (N370S mutant GC): co-localization of this mutant form of GC to the lysosome

SMILES: O=C(O)c1ccc2c(c1)C(=O)N([C@H](Cc1cccc3ccccc13)C(=O)O)C2=O [NCGC00161790, (R)-2-(1-carboxy-2-(naphthalen-1-yl)ethyl)-1,3-dioxoisoindoline-5-carboxylic acid]
- Ki (AmpC β-lactamase): 5 µM

SMILES: COc1ccc(C2Nc3ccccc3C(=O)N2Cc2ccccc2)cc1COc1ccc(NC(C)=O)cc1 (centres unmarked) [NCGC00161876, N-(4-(5-(3-benzyl-4-oxo-1,2,3,4-tetrahydroquinazolin-2-yl)-2-methoxybenzyloxy)phenyl)acetamide]
- TSHR agonism in qHTS [2]: agonists

SMILES: COC/C=C/c1ccc(-c2nc(SC)nc3sc(C(=O)NC(C)(C)C)c(N)c23)cc1 [NCGC00166332]
- TSHR antagonism (TSHR [3]): antagonist
- blocking thyroperoxidase mRNA expression [4]: capable of blocking
- blocking the activity of thyroid-stimulating antibodies (TSHR [5]): capable of blocking

SMILES: COc1cccc(-c2nc(SC)nc3sc(C(=O)NC(C)(C)C)c(N)c23)c1 [Org 41841, reference compound]
- LHR agonism (LHR): highly potent
- response at TSHR (TSHR [3]; lower potency relative to LHR): agonistic response

SMILES: N#Cc1c(-c2ccccc2)no[n+]1[O-] [furoxan, 3-cyano-4-phenyl-1,2,5-oxadiazole 2-oxide]
- worm killing potential in the presence of carboxy-PTIO (S. mansoni adult worms): largely mitigated
- NO release (S. mansoni TGR): appreciable amount of NO
